Laboratory results from patent US4616038A, “Combination of thienamycin-type antibiotics with dipeptidase inhibitors” (Merck & Co., Inc., priority 1985, dated 1986).

Experiments:
Staphalococcus aureus = experiment: Systemic efficacy of thienamycin on the treatment of Staphylococcus aureus infections in the mouse; assay type: in vivo, Staphalococcus aureus (in mouse); conditions: coadministered with thienamycin
[1] = target: T1, renal dipeptidase (E.C.3.4.13.11) (Sus scrofa, UniProt P22412); experiment: Inhibition of glycyldehydrophenylalanine (GDP) hydrolysis by renal dipeptidase in vitro; assay type: biochemical, pig (hog); conditions: concentration producing 50% inhibition; substrate GDP 0.05 mM; pH 7.1; 37° C.; read-out: Ki
T1 construct: solubilized preparation of dipeptidase isolated from hog kidneys; from tissue; host or cells: hog kidney
T1 sequence (P22412 17-409): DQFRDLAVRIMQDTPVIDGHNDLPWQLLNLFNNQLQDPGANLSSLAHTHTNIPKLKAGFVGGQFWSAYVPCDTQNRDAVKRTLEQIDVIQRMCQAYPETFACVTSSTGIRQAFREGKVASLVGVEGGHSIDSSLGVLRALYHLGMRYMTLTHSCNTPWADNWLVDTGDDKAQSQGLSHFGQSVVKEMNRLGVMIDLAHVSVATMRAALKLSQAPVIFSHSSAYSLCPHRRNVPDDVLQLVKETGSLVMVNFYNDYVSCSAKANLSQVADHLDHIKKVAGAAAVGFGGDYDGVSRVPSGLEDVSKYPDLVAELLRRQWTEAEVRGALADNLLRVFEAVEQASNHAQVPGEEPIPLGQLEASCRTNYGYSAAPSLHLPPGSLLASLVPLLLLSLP
Procedure: This measured the ability of compounds to inhibit hydrolysis of glycyldehydrophenylalanine (GDP) by a solubilized preparation of dipeptidase isolated from hog kidneys The procedure is as follows to a 1 ml. system containing 50 mM "MOPS" (3-(N-morpholino)propanesulfonic acid) buffer, pH 7.1, is added 5 μg of lyophilized enzyme, and the test compound at a final concentration of 0.1 mM. After a five minute incubation at 37° C., GDP is added to a final concentration of 0.05 mM. Incubation is continued for 10 minutes, at 37° C. and hydrolysis of GDP is measured by the change in optical density with time at 275 nm. Inhibition of the enzyme is gauged by comparison to a standard run containing no inhibitor and is expressed as the inhibitor binding constant, Ki.
A 1 ml. system of 50 mM "MOPS" buffer, pH 7.1, is used. To this is added 5 μg of the pig renal enzyme and an amount of the test compound to bring its final concentration to 0.1 mM. After a five minute incubation at 37° C., an amount of GDP is added to bring its final concentration to 0.05 mM. The system is again incubated for 10 minutes, at 37° C. Hydrolysis of GDP is measured by its change in optical density with time at 275 nm. Inhibition of the enzyme is gauged by comparison to a standard run containing no inhibitor and is presented as percent inhibition.

renal dipeptidase = target: T2, renal dipeptidase (Sus scrofa, UniProt P22412); experiment: Substrate affinity and maximal velocity of hydrolysis by renal dipeptidase; assay type: biochemical, hog; conditions: GDP compared with thienamycin
T2 construct: GPI-anchored disulfide-linked homodimer
T2 sequence (P22412 17-384): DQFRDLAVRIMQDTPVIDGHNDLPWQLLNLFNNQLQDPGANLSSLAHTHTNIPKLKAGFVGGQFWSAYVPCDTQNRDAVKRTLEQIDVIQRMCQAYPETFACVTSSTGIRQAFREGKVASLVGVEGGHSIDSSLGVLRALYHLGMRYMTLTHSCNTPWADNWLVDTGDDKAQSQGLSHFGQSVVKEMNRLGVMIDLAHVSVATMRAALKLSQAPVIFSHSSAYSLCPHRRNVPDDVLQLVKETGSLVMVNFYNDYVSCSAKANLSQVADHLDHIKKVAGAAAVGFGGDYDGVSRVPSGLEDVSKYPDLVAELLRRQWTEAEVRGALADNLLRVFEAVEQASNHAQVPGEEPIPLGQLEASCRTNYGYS

SMILES	enhancement of systemic antibacterial activity of thienamycin (Staphalococcus aureus)	Ki [1]	maximal velocity of hydrolysis by renal dipeptidase (renal dipeptidase)
C/C=C(\NC(=O)CC(C)C)C(=O)O [Compound 7, Z-2-isovaleramido-2-butenoic acid]	approximately three-fold	6 µM	
NCC(=O)NC(=Cc1ccccc1)C(=O)O [GDP, glycyldehydrophenylalanine]			much higher maximal velocity of hydrolysis
